One block for each compound: values may come before it.
Tests used:
[1] = tested on: sulfonylurea (SUR) receptors of KATP channels; conditions: rat cerebral cortex, hippocampus, and striatum; cited from earlier work
β-cell KATP channels [2] = biological target: T1, β-cell KATP channels (Rattus norvegicus, UniProt P70673+Q09429); assay: Cell-attached single channel recording of KATP channels; assay type: cell-based; design: the effects of iptakalim on KATP channels expressed in rat pancreatic β-cells were examined; endogenous in cells; host or cells: primary pancreatic β-cells from male adult Wistar rats
T1 sequence (P70673 whole entry): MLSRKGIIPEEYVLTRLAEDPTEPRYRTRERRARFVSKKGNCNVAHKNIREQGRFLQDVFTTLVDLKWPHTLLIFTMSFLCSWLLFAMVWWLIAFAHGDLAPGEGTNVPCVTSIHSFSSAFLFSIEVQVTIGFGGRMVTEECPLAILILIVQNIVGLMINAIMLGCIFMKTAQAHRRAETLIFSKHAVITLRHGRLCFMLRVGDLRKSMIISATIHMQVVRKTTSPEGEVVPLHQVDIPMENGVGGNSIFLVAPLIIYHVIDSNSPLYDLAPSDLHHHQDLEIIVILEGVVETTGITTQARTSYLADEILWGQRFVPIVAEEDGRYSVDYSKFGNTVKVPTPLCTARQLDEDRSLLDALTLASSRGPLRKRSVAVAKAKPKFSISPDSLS
T1 sequence (Q09429 whole entry): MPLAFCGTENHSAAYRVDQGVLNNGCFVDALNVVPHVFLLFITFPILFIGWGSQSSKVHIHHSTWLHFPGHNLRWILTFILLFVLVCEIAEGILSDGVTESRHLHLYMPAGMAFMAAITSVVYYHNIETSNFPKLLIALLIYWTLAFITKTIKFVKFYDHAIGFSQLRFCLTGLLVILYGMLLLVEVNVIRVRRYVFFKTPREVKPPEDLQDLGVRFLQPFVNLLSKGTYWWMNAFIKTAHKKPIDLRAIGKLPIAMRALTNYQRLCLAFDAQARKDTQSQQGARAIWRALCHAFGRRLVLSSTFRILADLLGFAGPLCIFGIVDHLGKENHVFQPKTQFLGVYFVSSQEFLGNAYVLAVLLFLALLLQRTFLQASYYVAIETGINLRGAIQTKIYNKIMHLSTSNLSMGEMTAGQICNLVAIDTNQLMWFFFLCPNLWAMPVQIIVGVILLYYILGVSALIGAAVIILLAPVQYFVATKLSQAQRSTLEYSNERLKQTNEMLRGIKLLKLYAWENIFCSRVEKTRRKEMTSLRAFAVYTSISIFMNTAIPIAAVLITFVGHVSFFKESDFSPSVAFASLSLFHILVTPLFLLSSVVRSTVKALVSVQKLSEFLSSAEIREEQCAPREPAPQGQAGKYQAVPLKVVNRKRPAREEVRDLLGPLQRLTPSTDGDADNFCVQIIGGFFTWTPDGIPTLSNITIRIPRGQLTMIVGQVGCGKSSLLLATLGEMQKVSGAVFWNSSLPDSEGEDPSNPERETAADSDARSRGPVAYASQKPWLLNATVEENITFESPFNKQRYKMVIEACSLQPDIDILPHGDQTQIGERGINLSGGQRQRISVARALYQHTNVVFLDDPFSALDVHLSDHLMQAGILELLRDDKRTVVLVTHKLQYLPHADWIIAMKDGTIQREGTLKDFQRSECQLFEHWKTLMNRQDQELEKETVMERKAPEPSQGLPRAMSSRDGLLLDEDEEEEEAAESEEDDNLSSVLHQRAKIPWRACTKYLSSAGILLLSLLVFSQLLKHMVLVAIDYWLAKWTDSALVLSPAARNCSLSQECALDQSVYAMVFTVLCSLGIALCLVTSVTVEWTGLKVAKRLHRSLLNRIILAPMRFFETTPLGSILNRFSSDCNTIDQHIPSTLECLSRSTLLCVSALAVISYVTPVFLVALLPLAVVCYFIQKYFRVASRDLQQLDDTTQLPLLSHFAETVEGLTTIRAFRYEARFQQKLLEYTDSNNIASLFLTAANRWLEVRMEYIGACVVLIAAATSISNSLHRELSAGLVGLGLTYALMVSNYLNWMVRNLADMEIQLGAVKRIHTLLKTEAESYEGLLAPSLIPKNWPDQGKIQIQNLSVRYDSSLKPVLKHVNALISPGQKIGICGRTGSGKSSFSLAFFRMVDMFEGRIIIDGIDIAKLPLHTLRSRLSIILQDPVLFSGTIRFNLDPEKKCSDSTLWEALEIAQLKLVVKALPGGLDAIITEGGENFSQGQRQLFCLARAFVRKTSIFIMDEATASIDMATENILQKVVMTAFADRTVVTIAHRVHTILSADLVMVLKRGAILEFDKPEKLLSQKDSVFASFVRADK
Procedure: (§1) Pancreatic β-cell isolation. Isolation of rat islets was performed as previously described. In short, male adult rats (Wistar) were anesthetized with diethyl ether, and 10 ml of Hank's buffered saline (HBSS) containing collagenase (200 U/ml, Wako Chem., Japan) was injected into the common bile duct. The pancreas, swollen with digestion solution, was quickly excised and incubated in a plastic culture bottle for 20 min at 37° C. The suspension obtained by shaking the bottle was filtered through 0.5 mm metal mesh and washed with HBSS, which included 2% bovine serum albumin (BSA). […] After washing with HBSS, which contained 2% BSA, islets were cultured for 24 h with 5% CO2 in the tissue culture medium. Separation of islets was carried out using dispase (1000 U/ml, Godo Shusei, Japan) as previously described. Separated cells were again cultured for 1-4 days. […] Patch-clamp recordings. Cultured β-cells were kept in a 35-mm Petri dish, and the dish was placed on the stage of an inverted microscope (IMT-2, Olympus, Tokyo, Japan). Membrane potentials and membrane currents were measured using a patch-clamp amplifier (EPC-7, List Electronic, Darmstadt, Germany). The nystatin-perforation method was used to measure the membrane potential and the standard method was used to measure whole-cell currents. […] In order to measure whole-cell membrane current, voltage ramp pulses from −90 to −50 mV were repeatedly applied using a ramp pulse generator (SET-2100, Nihon Kohden, Tokyo, Japan). […] Series resistance below 12 MΩ was accepted. Single channel current recordings were carried out by the cell-attached and inside-out configurations. All electrophysiological experiments were carried out at room temperature (22±1° C.). Data of single channel currents were low-pass filtered at 1 KHz, digitized at 10 KHz and analyzed using a single channel current analysis program (Clampfit 9.2, Axon Instruments, Foster City, Calif.). The concentration-inhibition curve created by iptakalim was fitted using Origin 5.0 (Microcal, North Hampton, Mass.).
(§2) Solutions and Drugs. The standard external solution contained (in mM): 135 NaCl, 5.6 KCl, 1.2 MgCl2, 1 CaCl2, 5 glucose, 10 HEPES and pH 7.3 adjusted with KOH. For perforated patch membrane potential recording, the pipette solution contained (in mM): 100 K-gluconate, 35 KCl, 5 glucose, 0.5 EGTA, 10 HEPES, 200 μg/ml nystatin (Sigma, St. Louis, Mo., USA) and pH 7.2. For conventional whole-cell current recording, the pipette solution contained (in mM): 100 K-gluconate, 35 KCl, 1.2 MgCl2, 5 glucose, 0.5 EGTA, 10 HEPES and pH 7.2. For cell-attached and inside-out single channel recordings, the pipette solution contained (in mM): 135 KCl, 1.2 MgCl2, 5 glucose, 0.5 EGTA, 10 HEPES and pH 7.3. The ionic composition of the solution inside the membrane (bath solution) in inside-out recordings was the same as the pipette solution, but the pH of this solution was 7.2. When performing inside-out recordings, ATP was added to the bath solution at various concentrations.

rat pancreatic β-cells = assay: Nystatin-perforation whole-cell recording in current-clamp mode (membrane potential); assay type: cell-based; conditions: 100 μM; for effect on membrane potential: in the presence of 10 μM nifedipine
Procedure: as §1
Solutions and Drugs. […]

β-cell KATP channels [3] = biological target: T1, β-cell KATP channels; assay: Conventional whole-cell voltage-clamp, ramp pulse-induced KATP channel currents; assay type: cell-based; design: the effects of iptakalim on KATP channels expressed in rat pancreatic β-cells were examined; endogenous in cells; host or cells: primary pancreatic β-cells from male adult Wistar rats; conditions: for effect on ramp pulse-induced KATP channel whole-cell current: ramp −90 to −50 mV, glucose 5.5 mM
Procedure: as §1
as §2, with “The ionic composition of the solution inside the membrane (bath solution) in inside-out recordings was the same as the pipette solution, but the pH of this solution was 7.2. When performing inside-out recordings, ATP was added to the bath solution at various concentrations.” left out

[4] = cited from earlier work
Kir6.2/SUR1 = biological target: T2, Kir6.2/SUR1 (Homo sapiens, UniProt Q09428+Q14654); assay: Transfected Kir6.2/SUR1 cell line (HEK 293), data not shown; assay type: cell-based
T2 construct: expressed in transfected cells; host or cells: HEK 293
T2 sequence (Q14654 whole entry): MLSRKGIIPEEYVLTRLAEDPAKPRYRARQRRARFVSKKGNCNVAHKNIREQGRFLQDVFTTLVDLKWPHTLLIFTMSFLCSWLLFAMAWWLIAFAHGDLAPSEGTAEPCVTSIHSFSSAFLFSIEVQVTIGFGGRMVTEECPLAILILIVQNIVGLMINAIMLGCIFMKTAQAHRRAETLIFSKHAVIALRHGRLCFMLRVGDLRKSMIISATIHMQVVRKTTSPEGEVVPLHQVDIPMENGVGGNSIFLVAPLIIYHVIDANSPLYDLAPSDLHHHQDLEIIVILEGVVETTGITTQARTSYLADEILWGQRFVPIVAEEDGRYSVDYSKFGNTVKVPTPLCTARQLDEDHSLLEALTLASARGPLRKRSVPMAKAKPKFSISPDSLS
T2 sequence (Q09428 whole entry): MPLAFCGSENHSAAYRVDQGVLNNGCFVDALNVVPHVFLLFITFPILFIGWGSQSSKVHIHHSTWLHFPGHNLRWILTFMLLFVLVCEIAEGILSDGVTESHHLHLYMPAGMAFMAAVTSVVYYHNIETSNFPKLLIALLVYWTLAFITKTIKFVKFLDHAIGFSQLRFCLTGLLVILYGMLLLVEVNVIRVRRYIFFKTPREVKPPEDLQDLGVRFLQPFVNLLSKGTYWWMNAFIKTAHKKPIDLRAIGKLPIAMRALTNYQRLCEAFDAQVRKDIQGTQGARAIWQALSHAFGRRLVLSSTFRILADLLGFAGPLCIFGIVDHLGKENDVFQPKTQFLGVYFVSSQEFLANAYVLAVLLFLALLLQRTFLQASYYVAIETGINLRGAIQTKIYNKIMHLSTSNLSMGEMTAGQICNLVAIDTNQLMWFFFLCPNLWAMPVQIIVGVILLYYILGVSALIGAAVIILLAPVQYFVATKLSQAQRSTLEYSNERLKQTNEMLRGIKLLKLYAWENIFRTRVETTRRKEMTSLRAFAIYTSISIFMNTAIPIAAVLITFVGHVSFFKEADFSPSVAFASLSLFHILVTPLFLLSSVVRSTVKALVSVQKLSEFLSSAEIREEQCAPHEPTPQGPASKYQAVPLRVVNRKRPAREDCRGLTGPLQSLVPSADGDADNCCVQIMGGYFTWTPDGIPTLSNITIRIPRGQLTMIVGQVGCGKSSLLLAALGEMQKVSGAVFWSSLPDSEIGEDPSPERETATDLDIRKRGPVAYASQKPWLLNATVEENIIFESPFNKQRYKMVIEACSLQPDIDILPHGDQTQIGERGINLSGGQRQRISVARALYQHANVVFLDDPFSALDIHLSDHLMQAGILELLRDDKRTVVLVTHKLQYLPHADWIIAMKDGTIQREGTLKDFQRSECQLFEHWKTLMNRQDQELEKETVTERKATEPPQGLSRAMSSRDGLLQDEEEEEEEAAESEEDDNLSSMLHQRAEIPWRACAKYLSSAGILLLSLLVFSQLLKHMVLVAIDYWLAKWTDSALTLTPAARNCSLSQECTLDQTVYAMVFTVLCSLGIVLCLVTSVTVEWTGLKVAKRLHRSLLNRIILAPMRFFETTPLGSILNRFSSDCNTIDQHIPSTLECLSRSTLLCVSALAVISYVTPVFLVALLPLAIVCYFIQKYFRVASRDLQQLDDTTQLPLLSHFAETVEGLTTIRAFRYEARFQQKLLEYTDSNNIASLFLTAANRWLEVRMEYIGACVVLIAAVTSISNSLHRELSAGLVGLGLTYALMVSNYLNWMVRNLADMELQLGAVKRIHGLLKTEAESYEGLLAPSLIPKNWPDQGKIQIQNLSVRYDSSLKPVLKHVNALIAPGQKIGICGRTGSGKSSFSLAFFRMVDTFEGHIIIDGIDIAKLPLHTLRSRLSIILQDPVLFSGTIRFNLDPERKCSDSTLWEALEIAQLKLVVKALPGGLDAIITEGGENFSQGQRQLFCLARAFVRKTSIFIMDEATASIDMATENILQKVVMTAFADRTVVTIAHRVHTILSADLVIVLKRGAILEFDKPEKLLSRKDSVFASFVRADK
From the text: It is well known that KATP channels are expressed in a variety of tissues with different SUR subunits. For instance, cardiovascular KATP channels are formed by Kir6.2-SUR2A, pancreatic β-cell KATP channels are formed by Kir6.2-SUR1, while midbrain dopamine neurons are formed by Kir6.2-SUR1 (15,25-27) or Kir6.2-SUR2B. This diversity in SUR subunit expression results in different sensibilities to metabolic stress agents and KATP channel openers.

rat β-cells = assay: Fura-2 Ca2+ imaging of intracellular Ca2+ concentrations; assay type: cell-based; conditions: 100 μM bath-applied; sensitive to nifedipine
Procedure: Fura-2 Ca^2+ imaging. Isolated islets were placed in a glass-bottom culture dish and then loaded with a HEPES buffer solution (in mM: NaCl 140, KCl 4.7, MgCl2 1.2, CaCl2 1.0, glucose 10 and HEPES 10) containing 1 μM fura-2/AM (Dojin, Kumamoto, Japan) for 20 min at room temperature. Ca^+ images were captured using an inverted microscope with 40× Plan-Neofluar objectives (Axiovert 135, Zeiss, Oberkochen, Germany), a silicon intensifier target camera and recorded on a fluorescence-imaging system (Argus 50/CA, Hamamatsu Photonics, Hamamatsu, Japan). Excitation wavelengths were 340 nm and 380 nm, selected from a Xenon light source, and emission wavelength was 510 nm. A change in free intracellular Ca^2+ concentration ([Ca^2+]i) was calculated based on the change in ratio of two fluorescence intensities, F340/F380 (24). All microfluorimetric experiments were carried out at room temperature (22±1° C.).
Iptakalim elevated intracellular Ca^2+ concentrations. Referring to FIGS. 15-18, in order to test whether iptakalim-induced membrane depolarization triggers Ca^2+ influx through voltage-sensitive Ca^2+ channels, intracellular Ca^2+ concentrations were measured using fura-2 florescence imaging.

[5] = tested on: smooth muscle cells isolated from pulmonary artery; conditions: patch-clamp whole-cell; also isolated rat aorta denuded vascular endothelium; cited from earlier work
rat pancreatic islets = assay: Measurement of insulin release from isolated islets (RIA); assay type: cell-based; conditions: versus basal at 5.5 mM glucose
Procedure: Measurement of insulin release. Isolated islets were hand-picked under microscopy, and ten islets were distributed to each 35-mm Petri dish with 3 ml of HBSS containing 5.5 mM glucose, 20 mM HEPES, and 2% BSA. After pre-incubation for 60 min, islets were exposed to 100 nM BIM for 60 min, and then stimulated by high glucose (22.5 mM), tolbutamide (0.5 mM) or iptakalim (0.1 mM) for 30 min. Before and after glucose stimulation, some samples were collected for measurement of immuno-reactive insulin (IRI), and stored at −20° C. until the assay. IRI was measured by RIA using anti-human insulin antibody with rat insulin standard (Radio-immunoassay Kit, Insulin “Eiken”, Tokyo Japan).
Iptakalim increased insulin release from rat pancreatic islets. Turning finally to FIG. 19, the effects of iptakalim were examined on insulin release. […] With glucose at 5.5 mM in the external solution, basal insulin secretion was observed. Application of 22.5 mM glucose increased insulin secretion about 3-fold (p<0.01, n=6), 500 μM tolbutamide increased insulin secretion about 2.5-fold (p<0.01, n=6), and 100 μM iptakalim increased insulin secretion about 1.5-fold (p<0.05, n=8). Each group was averaged from 5-7 cells tested. Vertical bars indicate SE.

[6] = tested on: primary cultured hippocampal neurons; conditions: K+, but not Na+ and Ca2+; cited from earlier work
KATP channel = conditions: cited from earlier work
β-cell KATP channels [7] = biological target: T1, β-cell KATP channels; assay: Inside-out patch single channel recording of KATP channels; assay type: biochemical; design: the effects of iptakalim on KATP channels expressed in rat pancreatic β-cells were examined; endogenous in cells; host or cells: primary pancreatic β-cells from male adult Wistar rats; conditions: 100 μM
Procedure: Pancreatic β-cell isolation. Isolation of rat islets was performed as previously described. In short, male adult rats (Wistar) were anesthetized with diethyl ether, and 10 ml of Hank's buffered saline (HBSS) containing collagenase (200 U/ml, Wako Chem., Japan) was injected into the common bile duct. The pancreas, swollen with digestion solution, was quickly excised and incubated in a plastic culture bottle for 20 min at 37° C. The suspension obtained by shaking the bottle was filtered through 0.5 mm metal mesh and washed with HBSS, which included 2% bovine serum albumin (BSA). […] After washing with HBSS, which contained 2% BSA, islets were cultured for 24 h with 5% CO2 in the tissue culture medium. Separation of islets was carried out using dispase (1000 U/ml, Godo Shusei, Japan) as previously described. Separated cells were again cultured for 1-4 days. […] Patch-clamp recordings. Cultured β-cells were kept in a 35-mm Petri dish, and the dish was placed on the stage of an inverted microscope (IMT-2, Olympus, Tokyo, Japan). Membrane potentials and membrane currents were measured using a patch-clamp amplifier (EPC-7, List Electronic, Darmstadt, Germany). […] Data of single channel currents were low-pass filtered at 1 KHz, digitized at 10 KHz and analyzed using a single channel current analysis program (Clampfit 9.2, Axon Instruments, Foster City, Calif.). […]

β-cell KATP channels [8] = biological target: T1, β-cell KATP channels; assay: Preliminary experiments on β-cell KATP channels (data not shown); assay type: cell-based; design: endogenous in cells; host or cells: β-cells (preparation not described for these experiments)
[9] = 100 μM bath-application, Vp 0 mV

SMILES: CCC(C)(C)N=C(NC#N)Nc1cccnc1 [P1075]
displacement of [3H]iptakalim binding [1]: displaced

SMILES: CC1=NS(=O)(=O)c2cc(Cl)ccc2N1 [diazoxide, reference compound]
effect on KATP channel activity (β-cell KATP channels [2]; [9]): dramatically enhanced KATP channel activity | effect on membrane potential (rat pancreatic β-cells): remarkably hyperpolarized the membrane

effect on KATP channel activity (β-cell KATP channels [2]; [9]): reduced channel activities | effect on KATP channel activity (β-cell KATP channels [2]; 100 μM, Vp −60 mV): reduced KATP channel activity | open-time probability of KATP channels (β-cell KATP channels [2]; during application of 100 μM, before application 0.43±0.0438, Vp 0 mV): 0.121±0.026 | current amplitude of KATP channels (β-cell KATP channels [2]; during application of 100 μM, before application 3.51±0.17 pA, Vp 0 mV): 3.16±0.14 pA | mean open time of KATP channels (β-cell KATP channels [2]; during application of 100 μM, before application 5.95±0.62 ms, Vp 0 mV): 8.78 ± 0.81 ms | Hill coefficient of block of KATP channel current (β-cell KATP channels [3]; whole-cell, concentration-inhibition curve): 0.7 | IC50 (β-cell KATP channels [3]; whole-cell, concentration-inhibition curve, read-out: IC50 of block of KATP channel current): 3.3 µM | sensitivity of Kir6.2/SUR1 channels (opening) (Kir6.2/SUR1): insensitivity | mean open-time probability (β-cell KATP channels [7]; absence of ATP, reduced from 0.359±0.065): 0.145±0.041 | mean open-time probability (β-cell KATP channels [7]; presence of 10 μM ATP, reduced from 0.222±0.042): 0.103±0.029
SMILES: CC(C)NC(C)(C)C(C)C.Cl [iptakalim, N-(1-methylethyl)-1,1,2-trimethyl-propylamine hydrochloride]
effect on ramp pulse-induced KATP channel whole-cell current (β-cell KATP channels [3]; 100 μM bath-application): reduced the magnitude of the KATP channel current | water solubility [4]: water-soluble | effect on membrane potential and action potential firing (rat pancreatic β-cells; 5.5 mM glucose in external solution): slowly depolarized the membrane and elicited action potential firing | effect on membrane potential (rat pancreatic β-cells): clearly depolarized the membrane | effect on intracellular Ca2+ concentrations (rat β-cells): induced elevation of intracellular Ca^2+ concentrations | effect on K+ currents [5]: significantly enhanced K^+ currents | increase of insulin secretion (rat pancreatic islets; 100 μM): about 1.5 fold | effect on voltage-activated currents [6]: selectively enhanced voltage-activated K^+ | displacement of specific binding of [3H]P1075 (KATP channel): displaced by iptakalim in a concentration-dependent manner

SMILES: CC(N/C(=N\C#N)Nc1ccncc1)C(C)(C)C (stereo not shown) [pinacidil]
displacement of [3H]iptakalim binding [1]: displaced | effect on β-cell KATP channels (β-cell KATP channels [8]): showed inhibition of β-cell KATP channels

sensitivity of spontaneous single channel activities (β-cell KATP channels [2]; 500 μM bath-applied, Vp −60 mV): very sensitive
SMILES: CCCCNC(=O)NS(=O)(=O)c1ccc(C)cc1 [tolbutamide, reference compound]
effect on KATP channel activity (β-cell KATP channels [2]; 500 μM bath-application, Vp 0 mV): completely abolished KATP channel activity | effect on ramp pulse-induced KATP channel whole-cell current (β-cell KATP channels [3]; 500 μM): reversibly abolished the size of the current | increase of insulin secretion (rat pancreatic islets; 500 μM): about 2.5 fold

— patent US20070231273A1, “Method for Decreasing Blood Glucose Levels” (priority 2006, published 2007)
